Results taken from patent publication US7960376B2, “Benzo-fused heterocycles” (priority 2007, dated 2011).

Tests used:
rat CB2 receptor (rCB2) = molecular target: T1, rat CB2 receptor (rCB2) (Rattus norvegicus, UniProt Q9QZN9); assay: cell-based; type: cell-based; settings: intracellular cAMP, CHO-K1 cells, NKH-477 prestimulated; + agonist, − inverse agonist
T1 sequence (Q9QZN9 1-360): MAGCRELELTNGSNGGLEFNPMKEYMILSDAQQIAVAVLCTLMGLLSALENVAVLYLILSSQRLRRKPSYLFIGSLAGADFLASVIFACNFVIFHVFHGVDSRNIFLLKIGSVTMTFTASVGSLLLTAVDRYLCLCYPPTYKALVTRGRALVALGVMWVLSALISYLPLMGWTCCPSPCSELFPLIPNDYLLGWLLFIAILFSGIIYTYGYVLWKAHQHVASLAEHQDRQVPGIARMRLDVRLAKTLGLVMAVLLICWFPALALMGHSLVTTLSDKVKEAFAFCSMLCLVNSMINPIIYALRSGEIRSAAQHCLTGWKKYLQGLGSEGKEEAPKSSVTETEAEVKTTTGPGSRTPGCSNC

[1] = molecular target: human CB2 receptor (hCB2) (Homo sapiens, UniProt P34972); assay: cell-based; type: cell-based; settings: intracellular cAMP, CHO-K1 cells, NKH-477 prestimulated; + agonist, − inverse agonist
Sequence of human CB2 receptor (hCB2) (P34972 whole entry): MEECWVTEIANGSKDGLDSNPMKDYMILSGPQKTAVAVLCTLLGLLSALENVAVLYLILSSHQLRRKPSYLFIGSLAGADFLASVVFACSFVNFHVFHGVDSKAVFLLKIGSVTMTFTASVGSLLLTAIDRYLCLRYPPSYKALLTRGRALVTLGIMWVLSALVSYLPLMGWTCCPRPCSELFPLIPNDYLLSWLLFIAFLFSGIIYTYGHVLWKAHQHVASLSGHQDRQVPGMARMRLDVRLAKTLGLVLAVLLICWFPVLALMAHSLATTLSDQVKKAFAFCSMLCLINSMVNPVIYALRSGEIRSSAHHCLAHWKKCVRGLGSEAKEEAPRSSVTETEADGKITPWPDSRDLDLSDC

| SMILES | rCB2 EC50 range (rat CB2 receptor (rCB2)) | hCB2 EC50 range [1] |
| --- | --- | --- |
| CC(C)(C)NC(=O)c1ccc2c(c1)N(C(=O)c1ccccc1)CCS2 [Example 9, 4-benzoyl-N-tert-butyl-3,4-dihydro-2H-benzo[b][1,4]thiazine-6-carboxamide] | −D |  |
| CC(C)(C)NC(=O)c1ccc2c(c1)N(C(=O)c1ccc(Cl)cc1)CCS2 [Example 10, N-tert-butyl-4-(4-chlorobenzoyl)-3,4-dihydro-2H-benzo[b][1,4]thiazine-6-carboxamide] | +D | +D |
| COc1ccc(C(=O)N2CCSc3ccc(C(=O)NC4CCCC4)cc32)cc1 [Example 11, N-cyclopentyl-4-(4-methoxybenzoyl)-3,4-dihydro-2H-benzo[b] [1,4]thiazine-6-carboxamide] | −D | −E |
| O=C(NC1CCCC1)c1ccc2c(c1)N(C(=O)c1ccc(Cl)cc1)CCS2 [Example 15, N-cyclopentyl-4-(4-chlorobenzoyl)-3,4-dihydro-2H-benzo[b] [1,4]thiazine-6-carboxamide] | −E |  |
| COCCCNC(=O)c1ccc2c(c1)N(C(=O)c1ccccc1)CCS2 [Example 16, 4-benzoyl-N-(3-methoxypropyl)-3,4-dihydro-2H-benzo[b][1,4]thiazine-6-carboxamide] | −D | −E |
| COCCCNC(=O)c1ccc2c(c1)N(C(=O)c1ccc(F)cc1)CCS2 [Example 17] | −E |  |
| COCCCNC(=O)c1ccc2c(c1)N(C(=O)c1ccc(C)cc1)CCS2 [Example 18, N-(3-methoxypropyl)-4-(4-methylbenzoyl)-3,4-dihydro-2H-benzo[b][1,4]thiazine-6-carboxamide] | −E | −E |
| COCCCNC(=O)c1ccc2c(c1)N(C(=O)c1ccc(Cl)cc1)CCS2 [Example 19] | −E | −E |
| COCCCNC(=O)c1ccc2c(c1)N(C(=O)c1ccc(OC)cc1)CCS2 [Example 20] |  | −E |
| CC(C)NC(=O)c1ccc2c(c1)N(C(=O)c1ccccc1)CCS2 [Example 26, 4-benzoyl-N-isopropyl-3,4-dihydro-2H-benzo[b][1,4]thiazine-6-carboxamide] | −E |  |
| CC(C)NC(=O)c1ccc2c(c1)N(C(=O)c1ccc(F)cc1)CCS2 [Example 27] | +D | +E |
| CC(C)NC(=O)c1ccc2c(c1)N(C(=O)c1ccc(Cl)cc1)CCS2 [Example 29] | +D | +D |
| COc1ccc(C(=O)N2CCSc3ccc(C(=O)NC(C)C)cc32)cc1 [Example 30, N-isopropyl-4-(4-methoxybenzoyl)-3,4-dihydro-2H-benzo[b][1,4]thiazine-6-carboxamide] | −E | −E |
| CC(=O)N1CCSc2ccc(C(=O)NC(C)(C)C)cc21 [Example 32, 4-acetyl-N-tert-butyl-3,4-dihydro-2H-benzo[b][1,4]thiazine-6-carboxamide] | −E |  |
| CCC(=O)N1CCSc2ccc(C(=O)NC(C)(C)C)cc21 [Example 33, N-tert-butyl-4-propionyl-3,4-dihydro-2H-benzo[b][1,4]thiazine-6-carboxamide] |  | +D |
| CC(C)C(=O)N1CCSc2ccc(C(=O)NC(C)(C)C)cc21 [Example 34, N-tert-butyl-4-isobutyryl-3,4-dihydro-2H-benzo[b][1,4]thiazine-6-carboxamide] | +D | +D |
| CC(=O)N1CCSc2ccc(C(=O)NC3CCCC3)cc21 [Example 35, 4-acetyl-N-cyclopentyl-3,4-dihydro-2H-benzo[b][1,4]thiazine-6-carboxamide] | −E | +E |
| CCC(=O)N1CCSc2ccc(C(=O)NC3CCCC3)cc21 [Example 36, N-cyclopentyl-4-propionyl-3,4-dihydro-2H-benzo[b][1,4]thiazine-6-carboxamide] | −E | +E |
| CC(C)C(=O)N1CCSc2ccc(C(=O)NC3CCCC3)cc21 [Example 37, N-cyclopentyl-4-isobutyryl-3,4-dihydro-2H-benzo[b][1,4]thiazine-6-carboxamide] | −E | +E |

| SMILES | rCB2 EC50 range (rat CB2 receptor (rCB2)) | hCB2 EC50 range [1] |
| --- | --- | --- |
| COCCCNC(=O)c1ccc2c(c1)N(C(=O)C(C)C)CCS2 [Example 38, 4-isobutyryl-N-(3-methoxypropyl)-3,4-dihydro-2H-benzo[b][1,4]thiazine-6-carboxamide] | −E |  |
| CC(C)CNC(=O)c1ccc2c(c1)N(S(=O)(=O)c1ccccc1)CCS2 [Example 41, N-isobutyl-4-(phenylsulfonyl)-3,4-dihydro-2H-benzo-[b][1,4]thiazine-6-carboxamide] | +A | +C |
| O=C(NC1CCCC1)c1ccc2c(c1)N(S(=O)(=O)c1ccccc1)CCS2 [Example 44, N-cyclopentyl-4-(phenylsulfonyl)-3,4-dihydro-2H-benzo[b][1,4]thiazine-6-carboxamide] | +B | +C |
| CC(C)(C)NC(=O)c1ccc2c(c1)N(S(=O)(=O)c1ccccc1)CCS2 [Example 46, N-tert-butyl-4-(phenylsulfonyl)-3,4-dihydro-2H-benzo[b][1,4]thiazine-6-carboxamide] | +B | +B |
| COCCCNC(=O)c1ccc2c(c1)N(S(=O)(=O)c1ccccc1)CCS2 [Example 48, N-(3-methoxypropyl)-4-(phenylsulfonyl)-3,4-dihydro-2H-benzo[b][1,4]thiazine-6-carboxamide] | +B | +D |
| CC(C)NC(=O)c1ccc2c(c1)N(S(=O)(=O)c1ccccc1)CCS2 [Example 52, N-isopropyl-4-(phenylsulfonyl)-3,4-dihydro-2H-benzo[b][1,4]thiazine-6-carboxamide] | +A | +C |
| CC(C)(C)NC(=O)c1ccc2c(c1)N(S(C)(=O)=O)CCS2 [Example 53, N-tert-butyl-4-(methylsulfonyl)-3,4-dihydro-2H-benzo[b][1,4]thiazine-6-carboxamide] | +D | +E |
| CC(C)CNC(=O)c1ccc2c(c1)N(S(C)(=O)=O)CCS2 [Example 54, N-isobutyl-4-(methylsulfonyl)-3,4-dihydro-2H-benzo[b][1,4]thiazine-6-carboxamide] | +D | +E |
| CS(=O)(=O)N1CCSc2ccc(C(=O)NC3CCCC3)cc21 [Example 55, N-cyclopentyl-4-(methylsulfonyl)-3,4-dihydro-2H-benzo[b][1,4]thiazine-6-carboxamide] | +D | +E |
| COCCCNC(=O)c1ccc2c(c1)N(S(C)(=O)=O)CCS2 [Example 56, N-(3-methoxypropyl)-4-(methylsulfonyl)-3,4-dihydro-2H-benzo[b][1,4]thiazine-6-carboxamide] | +E |  |
| CC(C)NC(=O)c1ccc2c(c1)N(S(C)(=O)=O)CCS2 [Example 57, N-isopropyl-4-(methylsulfonyl)-3,4-dihydro-2H-benzo[b][1,4]thiazine-6-carboxamide] | +D | +E |
| CC(C)CNC(=O)c1ccc2c(c1)N(S(=O)(=O)c1ccccc1)CCO2 [Example 59, N-isobutyl-4-(phenylsulfonyl)-3,4-dihydro-2H-benzo [b][1,4]oxazine-6-carboxamide] | +C | +C |
| CCN(CC)C(=O)c1ccc2c(c1)N(S(=O)(=O)c1ccccc1)CCS2 [Example 65, N,N-diethyl-4-(phenylsulfonyl)-3,4-dihydro-2H-benzo[b][1,4]thiazine-6-carboxamide] | +C | +C |
| O=C(c1ccc2c(c1)N(S(=O)(=O)c1ccccc1)CCS2)N1CCCC1 [Example 66, (4-(phenylsulfonyl)-3,4-dihydro-2H-benzo[b][1,4]thiazin-6-yl)(pyrrolidin-1-yl)methanone] | +D | +D |
| O=C(c1ccc2c(c1)N(S(=O)(=O)c1ccccc1)CCS2)N1CCCCC1 [Example 67, (4-(phenylsulfonyl)-3,4-dihydro-2H-benzo[b][1,4]thiazin-6-yl)(piperidin-1-yl)methanone] | +C | +D |
| O=C(c1ccc2c(c1)N(S(=O)(=O)c1ccccc1)CCS2)N1CCOCC1 [Example 68] | +D | +D |
| O=C(c1ccc2c(c1)N(S(=O)(=O)c1ccc(C(F)(F)F)cc1)CCS2)N1CCCCC1 [Example 75, piperidin-1-yl(4-(4-(trifluoromethyl)phenylsulfonyl)-3,4-dihydro-2H-benzo[b][1,4]thiazin-6-yl)methanone] | −C |  |
| O=S(=O)(c1ccc(C(F)(F)F)cc1)N1CCSc2ccc(-c3nc(-c4cccc(C(F)(F)F)c4)no3)cc21 [Example 80, 3-(3-(trifluoromethyl)phenyl)-5-(4-(4-(trifluoromethyl)phenylsulfonyl)-3,4-dihydro-2H-benzo[b][1,4]thiazin-6-yl)-1,2,4-oxadiazole] |  | +D |
| CC1(C)CCN(S(=O)(=O)c2ccc(F)cc2)c2cc(C(=O)N3CCCC3)ccc2S1 [Example 102, (5-(4-fluorophenyl-sulfonyl)-2,2-dimethyl-2,3,4,5-tetrahydro-benzo[b][1,4]thiazepin-7-yl)(pyrrolidin-1-yl)-methanone] | +C |  |
